These results are taken from article doi:10.1101/2025.02.03.636334v1 (biorxiv, 2025).

Test [1] deals with M. tuberculosis H37Rv. In words: microbe, parasite or virus in culture. Conditions: Mycobacterium tuberculosis, 192 h, read-out: Mtb MIC (µM).
Test [2] addresses T1, KasA (Mycobacterium tuberculosis, UniProt P9WQD9).
T1 sequence (P9WQD9 1-416): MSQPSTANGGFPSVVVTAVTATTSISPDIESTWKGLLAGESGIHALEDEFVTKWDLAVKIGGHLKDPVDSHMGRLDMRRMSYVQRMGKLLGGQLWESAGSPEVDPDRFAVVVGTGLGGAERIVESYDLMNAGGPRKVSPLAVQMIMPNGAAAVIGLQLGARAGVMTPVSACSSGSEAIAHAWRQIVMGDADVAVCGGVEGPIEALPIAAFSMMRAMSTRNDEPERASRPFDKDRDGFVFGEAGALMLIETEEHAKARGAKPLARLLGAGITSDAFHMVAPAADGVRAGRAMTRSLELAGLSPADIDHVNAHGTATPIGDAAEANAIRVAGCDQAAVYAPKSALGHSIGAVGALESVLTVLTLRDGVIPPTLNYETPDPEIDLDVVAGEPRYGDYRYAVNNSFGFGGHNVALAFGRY
Nature of the test: biochemical. The note with it: read-out: % KasA Inhibition at 25 µM Compound.

Test [3] has as its target T2, MabA (Mycobacterium tuberculosis, UniProt P9WGT3). In words: biochemical. The note with it: read-out: % of control remaining.
Test [4] addresses T2, MabA. In words: MabA NADPH oxidation at […] nm. The test is classed as biochemical.
Test [5] concerns the target T1, KasA. Nature of the test: KasA-MabA coupled assay, NADPH at […] nm. Conditions: read-out: % inhibition at 25 μM. The test is classed as biochemical.
Test [6] has as its target T1, KasA. Nature of the test: microscale thermophoresis, RED-NHS labelled KasA. The class given is binding. (Microscale thermophoresis detects binding through changes in fluorescence in a small temperature gradient.)

The structures appear in SMILES notation. In brackets after ≈: the same amount, converted by molar mass. Bounds are passed on as bounds.

T2 sequence (P9WGT3 whole entry): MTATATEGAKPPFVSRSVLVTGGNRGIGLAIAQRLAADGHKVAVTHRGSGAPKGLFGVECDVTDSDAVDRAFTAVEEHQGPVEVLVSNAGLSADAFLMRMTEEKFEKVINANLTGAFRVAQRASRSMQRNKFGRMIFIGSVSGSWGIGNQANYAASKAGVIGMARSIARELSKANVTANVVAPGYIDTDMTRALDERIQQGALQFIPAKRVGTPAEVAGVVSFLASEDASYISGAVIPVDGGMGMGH

`O=C(c1cc(-c2ccc(F)cc2)nc2ccccc12)N1CCC(NS(=O)(=O)c2cccs2)CC1` [Z212116604]: in test [1], the MIC was 12 µM (≈ 5.95 µg/mL). Besides, in test [2], the inhibition (usually the relative decrease from the control value, in per cent) at 25 µM amounted to 14.7 ± 9.6%. For the same compound, in test [3], the remaining activity at 25 µM worked out at 99.4 ± 15%.
The corresponding values for `O=C(Nc1nc(-c2cccc(C(F)(F)F)c2)cs1)C1CCN(C(=O)c2ccc(F)cc2)CC1` [Z318114792] are 12 µM (≈ 5.73 µg/mL), 4.72 ± 3% and 102 ± 16.8%.
The corresponding values for `Cc1ccc(-c2cc(-c3c(O)nc4ccccc4c3-c3ccccc3)nc3ccccc23)cc1` [Z1702969146] are 12 µM (≈ 5.26 µg/mL), 27.1 ± 8.1% and 101 ± 17.6%.
The corresponding values for `Clc1ccc(-c2cc(Nc3ccccc3Cl)nc3ccccc23)cc1` [Z1143441182] are 12 µM (≈ 4.38 µg/mL), 13.9 ± 12% and 105 ± 19.7%.
As to `O=C(Nc1nc(-c2ccccn2)cs1)c1cc(-c2ccccc2)nc2ccc(Br)cc12` [Z29466477], in test [1], the MIC worked out at 0.12 µM (≈ 0.0585 µg/mL). For the same compound, the inhibition at 25 µM in test [2] is 15.3 ± 12.8%. Moreover, the remaining activity at 25 µM in test [3] was determined as 92.1 ± 16.2%.
Take `O=C(Nc1ccc(O)cc1)C1CCN(C(=O)c2cccc(Oc3cccc(C(F)(F)F)c3)c2)CC1` [Z979305278]: the MIC in test [1] came out at 12 µM (≈ 5.81 µg/mL). Moreover, in test [2], the inhibition at 25 µM came to 31.2 ± 9.3%. The remaining activity at 25 µM in test [3] turned out to be 97.8 ± 16.3%.
The corresponding values for `O=C(C1=C2SC=C(c3ccccc3)N2CCCC1)c1cc(-c2ccccc2Cl)nc2ccccc12` [Z56802551] are 12 µM (≈ 5.94 µg/mL), 15.6 ± 11.1% and 104 ± 22.4%.
Consider `C(=N\Nc1nc(-c2ccccc2)c2ccccc2n1)/c1cccc2cccnc12` [Z1033301210], for which the IC50 (commonly the concentration at which inhibition is half-maximal) in test [4] was more than 100 µM. The MIC in test [1] was 12 µM (≈ 4.51 µg/mL). Moreover, in test [2], the inhibition at 25 µM was found to be 46.7 ± 12.5%. In test [3], the remaining activity at 25 µM stood at 68.4 ± 16.8%.
As for `Cc1ccc(-c2cc(C(=O)N3CCC(C(=O)Nc4ccc5c(c4)OCO5)CC3)c3ccccc3n2)cc1` [Z99494139], the MIC in test [1] is 1.5 µM (≈ 0.74 µg/mL). Also, the inhibition at 25 µM in test [2] came to 11.5 ± 7%. Further, the remaining activity at 25 µM in test [3] stood at 101 ± 20.4%.
For the compound `O=C(Nc1ccc2c(c1)OCO2)C1CCN(C(=O)c2cc(-c3ccc(F)cc3)nc3ccccc23)CC1` [Z99494149], the MIC in test [1] is 3.1 µM (≈ 1.54 µg/mL). Further, the inhibition at 25 µM in test [2] was 12 ± 8.8%. In addition, the remaining activity at 25 µM in test [3] worked out at 95.5 ± 15%.
As for `O=C(Nc1ccc(S(=O)(=O)Nc2cccc(C(F)(F)F)c2)cc1)c1cc2ccccc2oc1=O` [Z31753778], in test [1], the MIC was found to be 0.78 µM (≈ 0.381 µg/mL). Moreover, the inhibition at 25 µM in test [2] was determined as 12 ± 8.8%. Besides, the remaining activity at 25 µM in test [3] worked out at 97.9 ± 14.6%.
With `O=C(Nc1nc(-c2ccccn2)cs1)c1cc(-c2ccccc2)nc2ccc(Br)cc12` [JSF-5071, 6-bromo-2-phenyl-N-(4-(pyridin-2-yl)thiazol-2-yl)quinoline-4-carboxamide], the inhibition at 25 µM in test [5] came out at 12.7 ± 4.8%. The affinity in test [6], expressed as Kd, was 4.78 ± 1.3 µM.
On to `O=C(CN1C(=O)NC2(CCOc3ccccc32)C1=O)c1c(-c2ccc(F)cc2)[nH]c2ccccc12` (stereo not drawn) [Z89763517], for which the MIC in test [1] is 3.1 µM (≈ 1.46 µg/mL).
On the same count and under the same terms, with `Clc1ccc2c(-c3ccccc3)cc(-c3c(Cl)nc4ccc(Br)cc4c3-c3ccccc3)nc2c1` [Z2039275273] the figure was 100 µM (≈ 55.6 µg/mL); with `COc1cc2c(cc1NC(=O)c1ccccc1-c1ccc(C(F)(F)F)cc1)oc1ccccc12` [Z30927947], 100 µM (≈ 46.1 µg/mL); with `Cc1cc(NC(=O)c2cc(-c3ccc(Cl)cc3)nc3ccccc23)n(-c2ccccn2)n1` [Z56802924], 100 µM (≈ 44 µg/mL).
Take `O=C(c1ccccc1)C1CCN(C2c3ccccc3-c3ccccc32)CC1` [Z646019388]: in test [1], the MIC is 100 µM (≈ 35.3 µg/mL).
The same measure, in the same setting: the result for `Cc1cccc(Oc2ccc(NC(=O)c3nn(-c4ccccc4)c(=O)c4ccccc34)cc2)c1` [Z29906038] reads 100 µM (≈ 44.7 µg/mL).
